The values that follow are results of earlier work, collected in article PMC8177746 (ACS applied materials & interfaces, 2020).

The test system of the series is Staphylococcus aureus. The settings on record: ref 14 (Lai et al.).

Turning to ILGPVLGLVSDTLDDVLGIL-NH2 [MH5], the MIC was 80 µM.
